Measured values published in patent US10208034B2, “Quinoline derivative” (ONO PHARMACEUTICAL CO., LTD., priority 2014, dated 2019).

Biological target: T1, Axl enzyme (Homo sapiens, UniProt P30530)
T1 sequence (P30530 26-894): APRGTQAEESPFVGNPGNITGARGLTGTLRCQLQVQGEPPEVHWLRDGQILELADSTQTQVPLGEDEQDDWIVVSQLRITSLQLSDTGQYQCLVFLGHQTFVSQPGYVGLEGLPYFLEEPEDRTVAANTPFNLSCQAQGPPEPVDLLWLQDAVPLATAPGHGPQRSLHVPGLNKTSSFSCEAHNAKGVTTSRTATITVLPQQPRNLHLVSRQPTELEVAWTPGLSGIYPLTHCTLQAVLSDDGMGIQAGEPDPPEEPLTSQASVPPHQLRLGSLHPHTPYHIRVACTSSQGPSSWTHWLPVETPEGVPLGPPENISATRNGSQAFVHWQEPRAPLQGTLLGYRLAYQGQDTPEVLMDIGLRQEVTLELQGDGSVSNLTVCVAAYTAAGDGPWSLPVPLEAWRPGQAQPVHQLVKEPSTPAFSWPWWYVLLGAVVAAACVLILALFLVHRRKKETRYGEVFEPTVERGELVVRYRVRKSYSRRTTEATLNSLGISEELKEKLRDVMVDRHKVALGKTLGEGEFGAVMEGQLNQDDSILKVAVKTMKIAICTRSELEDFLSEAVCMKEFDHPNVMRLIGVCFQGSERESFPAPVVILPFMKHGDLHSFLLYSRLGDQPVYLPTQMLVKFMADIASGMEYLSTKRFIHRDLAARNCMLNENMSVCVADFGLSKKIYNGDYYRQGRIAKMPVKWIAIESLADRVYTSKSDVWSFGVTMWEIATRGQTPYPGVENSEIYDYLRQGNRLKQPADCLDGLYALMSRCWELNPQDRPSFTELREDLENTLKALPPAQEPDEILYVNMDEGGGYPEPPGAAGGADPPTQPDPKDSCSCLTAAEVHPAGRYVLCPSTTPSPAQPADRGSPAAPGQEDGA
Test: Measurement of Axl inhibitory activity (LanthaScreen TR-FRET, in vitro test)
Assay type: biochemical
Conditions: Fluorescein-Poly GT substrate
Protocol: Axl enzyme inhibitory activity was measured by using LanthaScreen (registered trademark) system (Invitrogen) based on the attached instruction. The reagents used are shown below.
Reaction buffer solution: a solution containing 50 mmol/L HEPES (pH7.5), 0.01% Brij35, 10 mmol/L MgCl2 and 1 mmol/L EGTA was prepared by using purified water.
Test substance solution: a solution containing a test compound of 5-fold concentration with respect to the final concentration was prepared by 20-fold diluting a DMSO solution of test compound of each concentration with the reaction buffer solution.
Enzyme solution: a solution containing 400 ng/mL Axl enzyme was prepared by using the reaction buffer solution.
Substrate solution: a solution containing 45 μmol/L ATP and 500 nmol/L Fluorescein-Poly GT (Invitrogen) was prepared by using the reaction buffer solution.
Detection solution: a solution containing 20 mM EDTA and 4 nM PY20 (Invitrogen) was prepared by using Dilution B (Invitrogen).
A 10 mmol/L DMSO solution of the test compound was dispensed into a 96-well plate (Nunc), and, furthermore, a 3-fold dilution series was prepared using DMSO. In each well of the 96-well plate for measurement, 5 μL each of the reaction buffer solution containing DMSO was added to a Blank group and a medium group, and 5 μL of the test substance solution was added to the test substance group, respectively. Next, 10 μL/well of the reaction buffer solution was added to the Blank group, and 10 μL/well each of the enzyme solution was added to the medium group and the test compound group, followed by stirring at room temperature for 10 min. After the completion of stirring, 10 μL each of the substrate solution was added into each well, followed by stirring at room temperature with light shielded for one hour. After the completion of reaction, 25 μL each of the detection solution was added to each well, and stood still at room temperature with light shielded for 30 min. After standing sill, fluorescence intensity at 520 nm and 495 nm at the time of irradiation with exciting light of 340 nm was measured by using Analyst GT (Molecular Devices). The phosphorylation of the artificial substrate was quantified by Time-resolved Fluorescence Resonance Energy Transfer (TR-FRET). TR-FRET ratio was calculated by dividing 520 nm fluorescence signal by 495 nm fluorescence signal for each well, and the inhibition rate (%) in the test compound group was calculated based on the following mathematical formula. Inhibition rate (%)=[1−(TR-FRET ratio of test compound group−A)/(B−A)×100 [Math. 1] A: average value of TR-FRET ratios of Blank group B: average value of TR-FRET ratios of medium group
Values of 50% inhibition rate (IC50 values) of the test compound were calculated from the inhibition curve based on the inhibition rate of the test compounds in each concentration.

| Compound | IC50 |
| --- | --- |
| COc1cc2nccc(Oc3ccc(NC(=O)c4cc(C(C)=O)cn(-c5ccccc5)c4=O)nc3)c2cc1OC [Example 21, 5-acetyl-N-{5-[(6,7-dimethoxy-4-quinolinyl)oxy]-2-pyridinyl}-2-oxo-1-phenyl-1,2-dihydro-3-pyridinecarboxamide] | 1.5 nM |
| COc1cc2nccc(Oc3ccc(NC(=O)c4cc5ccncc5n(-c5ccccc5)c4=O)nc3)c2cc1OC [Example 28, N-{5-[(6,7-dimethoxy-4-quinolinyl)oxy]-2-pyridinyl}-2-oxo-1-phenyl-1,2-dihydro-1,7-naphthyridine-3-carboxamide] | 1.3 nM |
| COc1cc2nccc(Oc3ccc(NC(=O)c4c5c(cn(-c6ccccc6)c4=O)C(=O)CCC5)nc3)c2cc1OC [Example 42, N-{5-[(6,7-dimethoxy-4-quinolinyl)oxy]-2-pyridinyl}-3,8-dioxo-2-phenyl-2,3,5,6,7,8-hexahydro-4-isoquinolinecarboxamide] | 3.5 nM |
| COc1cc2nccc(Oc3ccc(NC(=O)c4cc5c(n(-c6ccccc6)c4=O)CCCNC5=O)nc3)c2cc1OC [Example 66, N-{5-[(6,7-dimethoxy-4-quinolinyl)oxy]-2-pyridinyl}-2,5-dioxo-1-phenyl-2,5,6,7,8,9-hexahydro-1H-pyrido[3,2-c]azepine-3-carboxamide] | 1.5 nM |
